Assay results published in US6495376B1, “Methods and compositions for regulating protein-protein interactions” (Beth Israel Deaconess Medical Center, priority 1999, dated 2002).
Where two headings read alike, the source gives them in different places.

What was measured:
[1] = molecular target: WFYpSPFLE (Pintide); assay: Fluorescence anisotropy (polarization) binding to fluorescein-labeled phosphorylated Pintide analogue; conditions: for Kd for Pintide (μM): fluorescein labeled Pintide, high affinity pSer-binding site in the WW-domain
Source text: To determine the affinity of Pin1, and its WW or PPIase domain for phosphopeptides, peptides were labeled with fluorescein and their interactions with Pin1 measured using quantitative fluorescence anisotrophy. To prevent nonspecific labeling, a Pintide analogue (WFYpSPFLE) SEQ ID NO: 9 was used, which binds Pin1 with a high affinity based on the peptide library screen as described by (Lu, K. P. et al., U.S. Ser. No. 60/058,164 (1997), the teachings of which are incorporated herein in their entirety.
(§1) Pintide and its nonphosphorylated counterpart were synthesized and incubated with GST-Pin1 or the GST-WW-domain of Pin1 in a binding buffer, using established procedures (Shen, M. et al., Genes & Dev 12:706 (1998)). After a 1 hr incubation, mitotic HeLa cell extracts were added and subjected to GST pull down experiments, followed by immunoblotting analysis using the MPM-2 antibody. To obtain semi-quantitative data, films of immunoblots were scanned at the region of 55 kDa, the major Pin1-binding protein, and data analyzed using ImageQuan (ScanJet II CX). The peptide binding constants were measured using a fluorescence polarization assay (Jiskoot, W. et al., Anal Biochem 196:421 (1991)). Peptides were fluorescein labeled at the N-terminus using the Fluorescein Amine Labeling Kit (Pan Vera Corp.) and purified by TLC according to the manufacturer's […]. To prevent nonspecific labeling, a Pintide analogue (WFYpSPFLE) SEQ ID NO: 8 and the nonphosphorylated control were used. Various concentrations of Pin1 and its mutant proteins were incubated with 0.1 μM of the labeled peptides in a binding buffer containing 50 mM HEPES, pH 7.4, 100 mM NaCl, 2% glycerol. Fluorescence polarization values were obtained using a Pan Vera Beacon 2000 system, as described by the manufacturer.

[2] = test system: peptide substrate; assay: PPIase activity assay with peptide substrate; assay type: biochemical; conditions: relative to wild-type protein defined as 100%
[3] = test system: temperature-sensitive ptf1 yeast mutant (YPM2); assay: Rescue of temperature-sensitive ptf1 yeast mutant (in vivo function); assay type: cell-based; conditions: YPM2 cells, restrictive temperature
Procedure: Given the essential role of the WW-domain in conferring Pin1-binding specificity in vitro, a critical question is whether this domain is important in vivo. To address this question, experiments using the PIN1 yeast homologue, ESS1/PTF1 were performed. ESS1/PTF1 is essential for cell growth and human Pin1 can carry out this essential function when transfected into yeast cells (Lu, K. P. et al., Nature 380:544 (1996); Hanes, S. D. et al., Yeast 5:55 (1989); Hani, J. et al., FEBS Lett. 365:198 (1995)). A temperature-sensitive ptf1 mutant strain, YPM2, grows at the permissive temperature (23° C.), but not at the restrictive temperature (30° C.) (Hanes, S. D. et al., Yeast 5:55 (1989); Hani, J. et al., FEBS Lett. 365:198 (1995)). This phenotype is completely rescued by a 1.5 kb PTF1 genomic fragment, which also contains the promoter and the 3′ processing sequence (FIG. 3). To insure that all human Pin1 proteins were expressed at physiological levels under normal regulation, the coding sequence of the fully functional ESS1/PTF1 gene in a Yepvector was replaced with the coding sequence of the human PIN1 (or Pin1 mutant) cDNA (FIG. 3) and transformed into a temperature-sensitive ptf1 strain. Transformants were selected on minimal media minus Leu at the permissive temperature (23° C.) and protein expression was detected by immunoblotting analysis using 12CA5 monoclonal antibody specific for the HA epitope tag inserted at the N-terminus. […] Those strains expressing similar levels of Pin1 and Pin1 mutants were grown at permissive and nonpermissive temperature.

[4] = test system: MPM-2 antigens (mitotic phosphoproteins) of mitotic HeLa cell extracts; assay: GST pulldown from mitotic HeLa cell extracts, MPM-2 immunoblotting (phosphoprotein-binding activity); conditions: for Phosphoprotein binding activity: GST-fusion proteins with mitotic extracts, MPM2 antibody; for binding to mitotic phosphoproteins / MPM-2 antigens (in words): mitotic HeLa cell extracts
Procedure: GST-fusion proteins containing the WW-domain, PPIase-domain or the entire Pin 1 protein were prepared and incubated with interphase (G1/S arrested; Control) or dividing (M phase) HeLa cell extracts using well-known procedures (Lu, K. P., et al., Nature 380:544 (1996); (Shen, M., et al., Genes & Devl. 12:706 (1998)). Briefly, HeLa cells were arrested at the G1/S boundary or mitosis by incubation with thymidine and aphidicolin or nocodazole for 16 h, respectively. The cells were lysed and supernatants incubated with 10 μl of agarose beads containing GST-Pin1; GST-WW-domain of Pin1; GST-PPIase domain of Pin1; or control GST for 2 h at 4° C. The phosphorylated precipitated proteins were washed 5 times in buffer containing 1% Triton X-100 before subjecting to immunoblotting analysis using MPM-2 antibody, as described previously (Yaffe, M. B. et al., Science 278:1957 (1997); Schukowski, et al., Biochemistry 37:5566 (1998); Shen, M. et al., Genes & Dev 12:706 (1998)). MPM-2 recognizes a subset of mitotic phosphoproteins including Pin1-binding proteins such as cdc25.
as §1
To examine the effect of Pin1 phosphorylation on Pin1 binding to ligands, Pin1 and Pin1 mutant proteins were incubated with the catalytic subunit of PKA and PKC (a mixture of α, β and γ, UBI) in a kinase reaction buffer containing 500 μM cold ATP at 30° C. for 15 min (Lu, K. P. et al., Anal. Biochem. 196:421 (1991)). The reactions were stopped by adding SDS sample buffer and reaction products separated on SDS-gels, followed by autoradiography. Pin1 proteins were isolated and used to bind MPM-2 antigens from mitotic extracts from HeLa cells, as previously described (Shen, M., et al., Genes & Dev 12:706 (1998)). Experiments were also performed with PKA and PKC, casein kinase, cyclin B/Cdc2 and SRPK1 kinases.

[5] = test system: tau-promoted MT assembly; assay: Microtubule assembly light-scattering assay (turbidity at 350 nm); assay type: biochemical; conditions: 0.05 mg/ml protein, 0.05 mg/ml tau
Procedure: The effect of Pin1 on the ability of phosphorylated tau to promote MT assembly was determined using light-scattering assays (Bramblett, G. T. et al., Neuron 10:1089-1099(1993); Alonso, A. C. et al., Proc Natl Acad Sci USA 91:5562-5566 (1994); Busciglio, J. et al., Neuron 14:879-888 (1995)). Briefly, MTs were assembled from phosphocellulose purified bovine tubulin (Cytoskeleton, Inc) and stabilized by Taxol. The nonphosphorylated or Cdc2 phosphorylated recombinant tau (0.1 mg/ml) was incubated with Pin1 (0.1 mg/ml) at 35° C. for 5 min before adding to the MTs. Bound tau was isolated by centrifugation (50,000×g) at 25° C. for 20 min, followed by immunoblotting analysis using CP27 and Pin1 antibodies. The ability of tau to promote MT assembly was determined using well established light-scattering assays. Briefly, the assembly of MTs was initiated by incubating tubulin (2 mg/ml) with or without tau (0.05 mg/ml) in 80 mM PIPES, pH 6.8, 1 mM EGTA, 1 mM MgCl2, 1 mM GTP, 20% glycerol at 35° C. for 2 min. The mixture was then transferred to a 100 μl cuvet and the rate of the MT assembly was monitored at room temperature using the turbidity increase at 350 nm. To examine the effect of Pin1, Pin1 or its mutant (0.05 mg/ml) was pre-incubated with tau or Cdc2 phosphorylated tau (0.05 mg/ml) at 35° C. for 5 min before the MT assembly assays.

[6] = molecular target: […] (Cdc25 Peptide, nonphosphorylated); assay: GST-WW-domain incubated with peptide on a membrane, immunoblotting with GST antibody; assay type: binding
[7] = molecular target: WFYSPFLE; assay: Fluorescence anisotropy binding to fluorescein-labeled nonphosphorylated control peptide; conditions: GST-WW-domains, N.B., not binding detected
[8] = molecular target: EQPLpTPVTDL (Cdc25 Peptide); assay: Fluorescence anisotropy binding to fluorescein-labeled phosphorylated Cdc25 peptide; conditions: GST-WW-domains
[9] = molecular target: T1, Pin1^R14A (Homo sapiens, UniProt Q13526, R14A); assay: ELISA peptide binding to Pin1^R14A; conditions: mutant Pin1^R14A
T1 construct: mitotic HeLa cell extracts incubated with the entire Pin1 protein or its WW-domain; GST or His (N); made in house

[10] = molecular target: Pin1 (Homo sapiens, UniProt Q13526); assay: ELISA peptide binding to Pin1; conditions: Pin1
[11] = molecular target: T2, Pin1^Y23A (Homo sapiens, UniProt Q13526, Y23A); assay: ELISA peptide binding to Pin1^Y23A; conditions: mutant Pin1^Y23A
T2 construct: mitotic HeLa cell extracts incubated with the entire Pin1 protein or its WW-domain; GST or His (N); made in house

[12] = low affinity binding site, read-out: WFYpSPFLE Kd(μM) Low affinity

Sequence of Pin1 (Q13526 whole entry): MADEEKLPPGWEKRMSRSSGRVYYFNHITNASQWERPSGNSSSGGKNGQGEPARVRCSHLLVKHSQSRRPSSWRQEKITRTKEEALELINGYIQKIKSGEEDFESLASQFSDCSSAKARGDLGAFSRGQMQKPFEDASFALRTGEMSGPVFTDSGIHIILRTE
Sequence of tau-promoted MT assembly (P10636 45-219 isoform P10636-2 limits assumed): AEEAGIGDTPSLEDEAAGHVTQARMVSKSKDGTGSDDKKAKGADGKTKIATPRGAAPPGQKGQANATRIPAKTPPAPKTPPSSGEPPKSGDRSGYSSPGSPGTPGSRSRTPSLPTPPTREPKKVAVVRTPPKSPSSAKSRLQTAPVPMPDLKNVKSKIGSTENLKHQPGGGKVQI
T2 sequence (Q13526 whole entry Y23A): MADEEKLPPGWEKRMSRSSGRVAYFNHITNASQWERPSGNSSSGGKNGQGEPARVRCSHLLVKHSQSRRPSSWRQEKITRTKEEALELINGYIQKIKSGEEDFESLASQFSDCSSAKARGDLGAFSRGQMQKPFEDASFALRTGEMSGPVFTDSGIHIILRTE
T1 sequence (Q13526 whole entry R14A): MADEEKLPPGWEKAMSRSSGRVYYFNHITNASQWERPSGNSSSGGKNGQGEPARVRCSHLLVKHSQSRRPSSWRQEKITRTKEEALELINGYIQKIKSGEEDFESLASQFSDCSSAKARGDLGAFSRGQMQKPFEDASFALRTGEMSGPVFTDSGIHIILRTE

Row | Molecule | WFYpSPFLE Kd(μM) High affinity ([1]; high affinity binding site) | Kd [1, 12] [µM] | PPlase Activity (%) [2] [%] | complementation of temperature-sensitive ptf1 phenotype (in words) [3] | Phosphoprotein binding activity [4] | binding to mitotic phosphoproteins / MPM-2 antigens (in words) [4] | Kd for Pintide (μM) [1] | effect on ability of Cdc2 phosphorylated tau to promote MT assembly [5] | Kd ([1]; GST-WW-domains, fluorescein-labeled peptide, average of three independent experiments, read-out: Kd (μM) Pintide WFYpSPFLE) [µM] | Kd (μM) Cdc25 Peptide EQPLTPVTDL [6] | Kd (μM) Pintide nonphosphorylated WFYSPFLE [7] | Kd (μM) Pintide nonphosphorylated WFYSPFLE ([7]; listed as WW-domain of Nedd4) | Kd [8] [µM] | Binding (OD@405 nm), tau peptide [9] [OD@405 nm] | Binding (OD@405 nm), tau peptides [10] [OD@405 nm] | Binding (OD@405 nm), tau peptide [11] [OD@405 nm]
1 | Pin1^S16E: Pin1 with Ser-16 mutated to Glu | no high affinity-binding site | 10.5 | 95 | abolish the ability of Pin1 to support cell growth | − | failed to bind mitotic phosphoproteins |  |  |  |  |  |  |  |  |  | 
2 | Pin1^W34A: Pin1 with single Ala point mutation of Trp-34 in the WW-domain |  | 14 | 94 | abolish the ability of Pin1 to support cell growth | − | completely abolished | N.B. |  |  |  |  |  |  |  |  | 
3 | Pin1^Y23A: Pin1 with single Ala point mutation of Tyr-23 in the WW-domain |  | 13.5 | 85 | abolish the ability of Pin1 to support cell growth | − | completely abolished | N.B. | did not have any effect |  |  |  |  |  |  |  | 
4 | Nedd4 WW-domain: GST-WW-domain of ubiquitin ligase Nedd4; text ties Table 1 to WW-domain-2 |  |  |  |  |  | bound only a few MPM-2 antigens |  |  | 10 | N.B.* | N.B. | did not bind | 20 |  |  | 
5 | CC(C)[C@H](NC(=O)[C@H](C)NC(=O)[C@@H](NC(=O)[C@@H](N)CCCCN)C(C)C)C(=O)N[C@H](C(=O)N[C@@H](CCCNC(=N)N)C(=O)N[C@H](C(=O)N1CCC[C@H]1C(=O)N1CCC[C@H]1C(=O)N[C@@H](CCCCN)C(=O)N[C@@H](CO)C(=O)N1CCC[C@H]1C(=O)N[C@@H](CO)C(=O)O)[C@@H](C)OP(=O)(O)O)C(C)C [pT-231] |  |  |  |  |  |  |  |  |  |  |  |  |  | 1.30 | 1.46 | 0.00
